Results reported in PubChem BioAssay AID1963872 (Molecular Pharmacology Branch, DTP, NCI, 2024).

Tested on: KRAS patient-derived spheroids with HUVEC/MSC, viability
Assay: Anticancer human tumor 519858-162-T-J1-PDC patient-derived colon adenocarcinoma cell line growth inhibition [KRAS2]
Details: for IC50: curve of first compound; for viability, T/C: stronger effect = lower value
Method in brief: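 Combination screen of spheroid viability in tumor-cell co-cultures with endothelial (HUVEC) and mesenchymal stem cell stroma. Each agent was tested in half-log dilutions, topping at clinical Cmax or at 10 microM without a known Cmax.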

[1] = second compound 0.1 µM, first compound 0.0316 µM
[2] = second compound 0.1 µM, first compound 0.1 µM
[3] = second compound 0.1 µM, first compound 0.316 µM
[4] = second compound 0.1 µM, first compound 1 µM
[5] = second compound 0.1 µM, first compound 3.16 µM
[6] = second compound 0.316 µM, first compound 0.0316 µM
[7] = second compound 0.316 µM, first compound 0.1 µM
[8] = second compound 0.316 µM, first compound 0.316 µM
[9] = second compound 0.316 µM, first compound 1 µM
[10] = second compound 0.316 µM, first compound 3.16 µM
[11] = second compound 1 µM, first compound 0.0316 µM
[12] = second compound 1 µM, first compound 0.1 µM
[13] = second compound 1 µM, first compound 0.316 µM
[14] = second compound 1 µM, first compound 1 µM
[15] = second compound 1 µM, first compound 3.16 µM
[16] = second compound 3.16 µM, first compound 0.0316 µM
[17] = second compound 3.16 µM, first compound 0.1 µM
[18] = second compound 3.16 µM, first compound 0.316 µM
[19] = second compound 3.16 µM, first compound 1 µM
[20] = second compound 3.16 µM, first compound 3.16 µM
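Note: compound exposure lasted seven days before readout.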
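Throughout, for viability, T/C: 100% = DMSO vehicle control viability.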

Work on CC1COCCN1c1cc(-c2ccnn2C)c2ccnc(-c3ccn[nH]3)c2n1 (stereo not given) + C=CC(=O)N1CCN(c2nc(OCC3CCCN3C)nc3c2CCN(c2cccc4cccc(C)c24)C3)CC1CC#N yielded an IC50 (second compound 0.0316 µM) of 2390 nM, an IC50 (second compound 0.1 µM) of 434 nM and an IC50 (second compound 0.316 µM) of 813 nM. The IC50 (second compound 1 µM) was 470 nM, the IC50 (second compound 3.16 µM) was < 10 nM and the viability, T/C (second compound 0.0316 µM, first compound 0.01 µM) was 98.8%. It also gave a viability, T/C (second compound 0.0316 µM, first compound 0.0316 µM) of 78.5%, a viability, T/C (second compound 0.0316 µM, first compound 0.1 µM) of 78.3% and a viability, T/C (second compound 0.0316 µM, first compound 0.316 µM) of 69.2%. It also gave a viability, T/C (second compound 0.0316 µM, first compound 1 µM) of 74.9%, a viability, T/C (second compound 0.0316 µM, first compound 3.16 µM) of 40.7% and a viability, T/C (second compound 0.1 µM, first compound 0.01 µM) of 115%. For the same molecule, the viability, T/C [1] was 74%, the viability, T/C [2] was 73.3% and the viability, T/C [3] was 51.6%. The viability, T/C [4] was 50.3%, the viability, T/C [5] was 28.4% and the viability, T/C (second compound 0.316 µM, first compound 0.01 µM) was 78.5%. It also gave a viability, T/C [6] of 72.7%, a viability, T/C [7] of 71.2% and a viability, T/C [8] of 69.5%. For the same molecule, the viability, T/C [9] was 45.7%, the viability, T/C [10] was 33.2% and the viability, T/C (second compound 1 µM, first compound 0.01 µM) was 83.4%. For the same molecule, the viability, T/C [11] was 58.3%, the viability, T/C [12] was 84.5% and the viability, T/C [13] was 58.6%. It also gave a viability, T/C [14] of 33.9%, a viability, T/C [15] of 26.7% and a viability, T/C (second compound 3.16 µM, first compound 0.01 µM) of 38.3%. For the same molecule, the viability, T/C [16] was 64.3%, the viability, T/C [17] was 24.3% and the viability, T/C [18] was 29.5%. The viability, T/C [19] was 30.7% and the viability, T/C [20] was 13.2%.

CC(C)NCC(C(=O)N1CCN(c2ncnc3c2C(C)CC3O)CC1)c1ccc(Cl)cc1 (stereo not given) + C=CC(=O)N1CCN(c2nc(=O)n(-c3c(C)ccnc3C(C)C)c3nc(-c4c(O)cccc4F)c(F)cc23)C(C)C1 was tested, and the IC50 (second compound 0.1 µM) was > 10000 nM, the IC50 (second compound 0.316 µM) was > 10000 nM and the IC50 (second compound 1 µM) was > 10000 nM. The IC50 (second compound 3.16 µM) was > 10000 nM, the IC50 (second compound 10 µM) was > 10000 nM and the viability, T/C [1] was 95.1%. For the same molecule, the viability, T/C [2] was 103%, the viability, T/C [3] was 65.2% and the viability, T/C [4] was 69%. The viability, T/C [5] was 111%, the viability, T/C (second compound 0.1 µM, first compound 10 µM) was 93.2% and the viability, T/C [6] was 95.3%. It also gave a viability, T/C [7] of 83.3%, a viability, T/C [8] of 86.5% and a viability, T/C [9] of 91.9%. It also gave a viability, T/C [10] of 99.1%, a viability, T/C (second compound 0.316 µM, first compound 10 µM) of 119% and a viability, T/C [11] of 68.7%. The viability, T/C [12] was 105%, the viability, T/C [13] was 96.9% and the viability, T/C [14] was 102%. The viability, T/C [15] was 77.8%, the viability, T/C (second compound 1 µM, first compound 10 µM) was 72.7% and the viability, T/C [16] was 92.8%. It also gave a viability, T/C [17] of 90.3%, a viability, T/C [18] of 87.5% and a viability, T/C [19] of 67%. It also gave a viability, T/C [20] of 82.7%, a viability, T/C (second compound 3.16 µM, first compound 10 µM) of 87.5% and a viability, T/C (second compound 10 µM, first compound 0.0316 µM) of 85.9%. The viability, T/C (second compound 10 µM, first compound 0.1 µM) was 73.8%, the viability, T/C (second compound 10 µM, first compound 0.316 µM) was 64.1% and the viability, T/C (second compound 10 µM, first compound 1 µM) was 73.9%. The viability, T/C (second compound 10 µM, first compound 3.16 µM) was 90.8% and the viability, T/C (second compound 10 µM, first compound 10 µM) was 75%.
